Assay results from patent EP0885869A1, “THERAPEUTIC AGENT FOR DIABETES” (Japan Tobacco Inc., priority 1996, dated 1997).
Where two headings read alike, the source gives them in different places.

Experiments:
fasted rats [1] = assay: Glucose tolerance test using fasted rats; type: in vivo, Male Wistar rats; settings: for inhibition in vivo at 1 mg/kg / inhibition in vivo at 10 mg/kg / inhibition in vivo at 30 mg/kg / inhibition in vivo at 100 mg/kg: Rattus norvegicus, 30 min before glucose loading (1 g/kg i.p.); for inhibition in vivo at 1 mg/kg: dose 1 mg/kg oral; for inhibition in vivo at 10 mg/kg: dose 10 mg/kg oral; for blood glucose in hyperglycemia at 30 min after glucose loading / blood glucose level 120 min later when hyperglycemia was not observed: oral administration, versus control, Fig. 1 (Example 93), Fig. 2 (Example 65, various doses); for inhibition in vivo at 30 mg/kg: dose 30 mg/kg oral; for inhibition in vivo at 100 mg/kg: dose 100 mg/kg oral
Method: Glucose tolerance test using fasted rats
Glucose (1 g/kg) was intraperitoneally administered and blood (0.2 ml) was taken at 30, 60 and 120 minutes later from the tail vein. […] As a control, used was carboxymethylcellulose. The suppression of increase in blood glucose was expressed by inhibition ratio (%) in the group administered with test drug, relative to the increase in blood glucose in the control group at 30 min after glucose loading, which was taken as 100%. The blood glucose after 120 min was also shown by the ratio (%) of changes relative to the control.

fasted rats [2] = assay: Effects on blood glucose level of fasted rats; type: in vivo, Male Wistar rats; settings: oral administration to rats fasted for 16 hr, blood at 30, 60 and 120 minutes; Fig. 4
Method: Effects on blood glucose level of fasted rats
As a control, used was carboxymethylcellulose, and blood glucose after administration of tolbutamide and the compounds of the present invention was determined.

fasted rats [3] = tested on: fasted rats
[4] = 0.5 h, inhibition of increase in blood glucose relative to control at 30 min, read-out: ratio of decrease at 30 min later(%)
[5] = 2 h, blood glucose after 120 min, ratio of changes relative to control, read-out: ratio of decrease at 120 min later(%)

Structure (SMILES) | inhibition in vivo at 1 mg/kg (fasted rats [1]; [4]) | inhibition in vivo at 10 mg/kg (fasted rats [1]; [4]) | inhibition in vivo at 1 mg/kg (fasted rats [1]; [5]) | inhibition in vivo at 10 mg/kg (fasted rats [1]; [5]) | inhibition in vivo at 30 mg/kg (fasted rats [1]; [4]) | inhibition in vivo at 30 mg/kg (fasted rats [1]; [5]) | also measured
O=C1CC(C(=O)c2ccccc2)CO1 (racemic) [Example 81, (±)-4-benzoyldihydro-2(3H)-furanone] | 23.7% | 20.7% | 1.7% | 6% | – | – | –
O=C1CC(C(=O)c2ccc(-c3ccccc3)cc2)CO1 (racemic) [Example 82, (±)-dihydro-4-(4'-phenylbenzoyl)-2(3H)-furanone] | 24.6% | – | -8.2% | – | – | – | –
CC1(C(=O)c2ccc(-c3ccccc3)cc2)CCC(=O)O1 (single isomer, unassigned; (-)) [Example 93, (-)-dihydro-5-methyl-5-(4'-phenylbenzoyl)-2(3H)-furanone] | – | – | – | – | – | – | blood glucose in hyperglycemia at 30 min after glucose loading (fasted rats [1]): significantly decreased the blood glucose; blood glucose level 120 min later when hyperglycemia was not observed (fasted rats [1]): did not unnecessarily lower the blood glucose level; fasting blood glucose (fasted rats [2]): did not lower the fasting blood glucose
CC(=O)CCC(=O)c1ccccc1 [Example 1, 1-phenyl-1,4-pentanedione] | – | – | – | – | 18.9% | 4.1% | inhibition in vivo at 100 mg/kg (fasted rats [1]; [4]): 14.9%; inhibition in vivo at 100 mg/kg (fasted rats [1]; [5]): 1.1%
CC(=O)CCC(=O)c1ccc(-c2ccccc2)cc1 [Example 2, 1-(4-biphenylyl)-1,4-pentanedione] | – | – | – | – | – | – | inhibition in vivo at 100 mg/kg (fasted rats [1]; [4]): 29.7%; inhibition in vivo at 100 mg/kg (fasted rats [1]; [5]): 3.8%
CC(=O)CCC(=O)C1CCCCC1 [Example 5, 1-cyclohexyl-1,4-pentanedione] | – | – | – | – | – | – | inhibition in vivo at 100 mg/kg (fasted rats [1]; [4]): 21.4%; inhibition in vivo at 100 mg/kg (fasted rats [1]; [5]): 7.3%
CC(=O)CCC(=O)C1(C)CCCCC1 [Example 6, 1-(1-methyl-1-cyclohexyl)-1,4-pentanedione] | – | – | – | – | – | – | inhibition in vivo at 100 mg/kg (fasted rats [1]; [4]): 19.8%; inhibition in vivo at 100 mg/kg (fasted rats [1]; [5]): 15%
CC(=O)CCC(=O)c1ccc(CO)cc1 [Example 20, 1-(4-hydroxymethylphenyl)-1,4-pentanedione] | – | – | – | – | 21.3% | 10.7% | –
O=C(O)CCC(=O)c1ccccc1 [Example 46, 4-oxo-4-phenylbutanoic acid] | 22.5% | 19.8% | 10.3% | -7% | – | – | –
O=C(O)CCC(=O)c1ccc(-c2ccccc2)cc1 [Example 47, 4-(4-biphenylyl)-4-oxobutanoic acid] | 26.5% | 20.7% | 14.7% | 4.7% | 29.1% | 6.8% | –
O=C(O)CCC(=O)c1ccc(CO)cc1 [Example 49, 4-[4-(hydroxymethyl)phenyl]-4-oxobutanoic acid] | – | 25.2% | – | 2.2% | – | – | –
O=C(O)CCC(=O)C1CCCCC1 [Example 58, 4-cyclohexyl-4-oxobutanoic acid] | 12.5% | 26.1% | -0.9% | 4.8% | 26.7% | -2.8% | –
CC1(C(=O)CCC(=O)O)CCCCC1 [Example 61, 4-(1-methylcyclohexyl)-4-oxobutanoic acid] | – | – | – | – | 31.5% | -5.7% | –
C[C@H]1CC[C@H](C(=O)CCC(=O)O)CC1 [Example 65, trans-4-(4-methylcyclohexyl)-4-oxobutanoic acid] | – | 31.7% | – | 5% | 41.2% | 10.5% | blood glucose in hyperglycemia at 30 min after glucose loading (fasted rats [1]): tends to show significant decrease in the blood glucose level; blood glucose level 120 min later when hyperglycemia was not observed (fasted rats [1]): does not unnecessarily lower the blood glucose level
O=C(CC(C(=O)O)C(=O)O)c1ccc(-c2ccccc2)cc1 [Example 69, 2-[2-(4-biphenylyl)-2-oxoethyl]propanedioic acid] | 22.1% | 24.6% | 4.9% | 3% | – | – | –
O=C(O)CCC(=O)c1ccc2ccccc2c1 [Example 74, 4-(2-naphthyl)-4-oxobutanoic acid] | – | 21.5% | – | -0.2% | – | – | –
CC(=O)NCC(=O)c1ccccc1 [Example 80, 2-acetaminoacetophenone] | 15.5% | 12.4% | -2.4% | -1.5% | – | – | –
CCCCNC(=O)NS(=O)(=O)c1ccc(C)cc1 [tolbutamide] | – | – | – | – | – | – | effect as a therapeutic agent for diabetes for treating hyperglycemia (fasted rats [3]; oral, in the dose that does not cause hypoglycemia, Fig. 3): did not show effective results; blood glucose 120 min later (fasted rats [3]; rat, in vivo, po): induced hypoglycemia; fasting blood glucose (fasted rats [2]): lowered the fasting blood glucose
